The source made the active and inactive calls. No cut-off for these calls is given here.
Legend:
BEAS-2B = assay: Cytotoxicity against human BEAS2B cells after 48 hrs by CCK-8 assay; assay type: cell-based
A549 [1] = assay: Cell cycle arrest in human A549 cells assessed as accumulation at G2 phase at 50 uM measured after 24 hrs by propidium iodide/RNase A staining based flow cytometry analysis (reference value: 12.69 %); assay type: functional
A549 [2] = assay: Induction of apoptosis in human A549 cells assessed as early apoptotic cells at 25 uM measured after 48 hrs by AnnexinV-FITC/propidium iodide staining based FACS analysis (reference value: 2.19 %); assay type: functional
[3] = molecular target: T1, NEDD8-conjugating enzyme UBE2F (Homo sapiens) (UniProt Q969M7); assay: Inhibition of UBE2F in human A549 cells assessed as decrease in Cullin5-Nedd8 adduct level at 50 uM measured after 6 to 12 hrs by Western blot analysis; assay type: cell-based
T1 sequence (whole entry): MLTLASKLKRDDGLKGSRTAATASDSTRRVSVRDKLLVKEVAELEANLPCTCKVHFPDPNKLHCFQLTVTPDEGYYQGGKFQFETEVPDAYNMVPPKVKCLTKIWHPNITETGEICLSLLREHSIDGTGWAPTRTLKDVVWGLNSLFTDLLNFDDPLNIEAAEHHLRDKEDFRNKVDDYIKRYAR

A549 [4] = assay: Cell cycle arrest in human A549 cells assessed as accumulation at G2 phase at 25 uM measured after 24 hrs by propidium iodide/RNase A staining based flow cytometry analysis (reference value: 12.69 %); assay type: functional
A549 [5] = assay: Induction of apoptosis in human A549 cells assessed as early apoptotic cells at 75 uM measured after 48 hrs by AnnexinV-FITC/propidium iodide staining based FACS analysis (reference value: 2.19 %); assay type: functional
A549 [6] = assay: Cell cycle arrest in human A549 cells assessed as accumulation at S phase at 50 uM measured after 24 hrs by propidium iodide/RNase A staining based flow cytometry analysis (reference value: 21.54 %); assay type: functional
[7] = molecular target: T2, Ubiquitin-conjugating enzyme E2 C (Homo sapiens) (UniProt O00762); assay: Inhibition of UbcH10 in human A549 cells assessed as reduction in protein ubiquitination by measuring Ubc10-ub adduct formation at 50 to 100 uM by Western blot analysis; assay type: cell-based
T2 sequence (whole entry): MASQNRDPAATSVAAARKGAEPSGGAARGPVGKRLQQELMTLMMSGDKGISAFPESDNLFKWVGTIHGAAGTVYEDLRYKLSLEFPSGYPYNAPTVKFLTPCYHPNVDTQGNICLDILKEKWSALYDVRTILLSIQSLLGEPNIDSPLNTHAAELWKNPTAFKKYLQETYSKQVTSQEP

A549 [8] = assay: Cell cycle arrest in human A549 cells assessed as accumulation at G1 phase at 75 uM measured after 24 hrs by propidium iodide/RNase A staining based flow cytometry analysis (reference value: 63.84 %); assay type: functional
MKN-45 = assay: Antiproliferative activity against human MKN45 cells measured after 48 hrs by CCK8 assay; assay type: functional, cell-based; conditions: MKN-45, 48 h
A549 [9] = assay: Cell cycle arrest in human A549 cells assessed as accumulation at sub-G1 phase at 75 uM measured after 24 hrs by propidium iodide/RNase A staining based flow cytometry analysis (reference value: 0.89 %); assay type: functional
A549 [10] = assay: Inhibition of cullin-RING ligase in human A549 cells assessed as accumulation of Wee1 level at 50 to 125 uM and measured after 6 to 12 hrs by Western blot analysis; assay type: cell-based
[11] = molecular target: T3, NEDD8/Cullin-1 (Homo sapiens) (UniProt Q13616+Q15843); assay: Inhibition of Nedd8-cullin1 adduct formation in human A549 cells assessed as decrease in cullin1 neddylation at 100 uM incubated for 6 to 12 hrs by Western blot analysis; assay type: cell-based
T3 sequence (Q13616 whole entry, looked up): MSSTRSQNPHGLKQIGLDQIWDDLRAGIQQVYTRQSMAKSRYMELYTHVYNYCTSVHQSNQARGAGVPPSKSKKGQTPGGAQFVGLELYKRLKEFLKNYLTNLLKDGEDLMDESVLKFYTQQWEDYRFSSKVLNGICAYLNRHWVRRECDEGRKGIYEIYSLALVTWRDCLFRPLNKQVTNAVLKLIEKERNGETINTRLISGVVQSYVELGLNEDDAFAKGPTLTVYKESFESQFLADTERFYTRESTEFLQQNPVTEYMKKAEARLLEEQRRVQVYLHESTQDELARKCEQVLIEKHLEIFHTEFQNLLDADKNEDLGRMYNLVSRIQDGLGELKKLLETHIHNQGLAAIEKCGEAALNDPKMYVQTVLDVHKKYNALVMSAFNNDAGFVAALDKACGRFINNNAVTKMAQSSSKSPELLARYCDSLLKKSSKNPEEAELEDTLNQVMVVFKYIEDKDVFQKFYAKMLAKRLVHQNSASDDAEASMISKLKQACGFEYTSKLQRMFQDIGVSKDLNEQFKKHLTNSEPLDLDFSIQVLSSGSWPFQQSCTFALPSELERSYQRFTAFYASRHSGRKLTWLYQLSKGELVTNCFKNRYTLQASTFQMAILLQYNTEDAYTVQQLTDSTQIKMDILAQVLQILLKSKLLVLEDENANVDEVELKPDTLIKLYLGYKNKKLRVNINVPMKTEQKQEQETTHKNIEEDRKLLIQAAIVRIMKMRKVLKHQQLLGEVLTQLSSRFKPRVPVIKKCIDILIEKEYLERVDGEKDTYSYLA
T3 sequence (Q15843 whole entry, looked up): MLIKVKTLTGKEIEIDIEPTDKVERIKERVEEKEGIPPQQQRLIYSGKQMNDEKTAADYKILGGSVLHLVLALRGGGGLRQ

[12] = molecular target: T3, NEDD8/Cullin-1 (Homo sapiens); assay: Inhibition of Nedd8-cullin1 (unknown origin) adduct formation assessed as decrease in cullin1 neddylation at 50 uM preincubated for 10 mins followed by ATP addition and measured after 30 mins by immunoblot analysis; assay type: protein assay
NCI-H1299 = assay: Antiproliferative activity against human H1299 cells measured after 48 hrs by CCK8 assay; assay type: functional, cell-based; conditions: NCI-H1299, 48 h
[13] = molecular target: T1, NEDD8-conjugating enzyme UBE2F (Homo sapiens); assay: Inhibition of UBE2F in human A549 cells assessed as decrease in Cullin5-Nedd8 adduct level measured after 6 to 12 hrs by Western blot analysis; assay type: cell-based
A549 [14] = assay: Cell cycle arrest in human A549 cells assessed as accumulation at S phase at 75 uM measured after 24 hrs by propidium iodide/RNase A staining based flow cytometry analysis (reference value: 21.54 %); assay type: functional
[15] = molecular target: T3, NEDD8/Cullin-1 (Homo sapiens); assay: Competitive inhibition of Nedd8-cullin1 (unknown origin) adduct formation assessed as decrease in cullin1-Nedd8 adduct formation at 50 uM preincubated for 10 mins followed by ATP addition and measured after 30 mins by immunoblot analysis; assay type: protein assay
[16] = molecular target: T4, NEDD8-conjugating enzyme Ubc12 (Homo sapiens) (UniProt P61081); assay: Inhibition of UBC12 in human A549 cells assessed as decrease in Cullin3-Nedd8 adduct level measured after 6 to 12 hrs by Western blot analysis; assay type: cell-based
T4 sequence (whole entry): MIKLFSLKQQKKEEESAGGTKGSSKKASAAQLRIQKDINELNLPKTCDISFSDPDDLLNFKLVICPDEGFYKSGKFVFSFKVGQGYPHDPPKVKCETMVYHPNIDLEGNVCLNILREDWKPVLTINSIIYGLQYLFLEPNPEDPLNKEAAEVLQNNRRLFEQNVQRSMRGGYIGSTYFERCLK

16HBE14o- = assay: Cytotoxicity against human 16HBE cells after 48 hrs by CCK-8 assay; assay type: cell-based
A549 [17] = assay: Induction of apoptosis in human A549 cells assessed as late apoptotic cells at 50 uM measured after 48 hrs by AnnexinV-FITC/propidium iodide staining based FACS analysis (reference value: 1.71 %); assay type: functional
[18] = molecular target: NEDD8/NEDD8-conjugating enzyme Ubc12 (Homo sapiens) (UniProt P61081+Q15843); assay: Inhibition of Nedd8-Ubc12 (unknown origin) assessed as decrease in Ubc12-Nedd8 adduct formation at 50 uM preincubated for 10 mins followed by ATP addition and measured after 30 mins by immunoblot analysis; assay type: protein-complex assay
[19] = molecular target: T4, NEDD8-conjugating enzyme Ubc12 (Homo sapiens); assay: Inhibition of UBC12 in human A549 cells assessed as decrease in Cullin4a-Nedd8 adduct level measured after 6 to 12 hrs by Western blot analysis; assay type: cell-based
A549 [20] = assay: Cell cycle arrest in human A549 cells assessed as accumulation at S phase at 25 uM measured after 24 hrs by propidium iodide/RNase A staining based flow cytometry analysis (reference value: 21.54 %); assay type: functional
EKVX = assay: Antiproliferative activity against human EKVX cells measured after 48 hrs by CCK8 assay; assay type: functional, cell-based
[21] = molecular target: SUMO-conjugating enzyme UBC9 (Homo sapiens) (UniProt P63279); assay: Inhibition of Ubc9 in human A549 cells assessed as reduction in protein sumoylation by measuring Ubc9-Sumo adduct formation at 50 to 100 uM by Western blot analysis; assay type: cell-based
SUMO-conjugating enzyme UBC9 (Homo sapiens), sequence (P63279 whole entry): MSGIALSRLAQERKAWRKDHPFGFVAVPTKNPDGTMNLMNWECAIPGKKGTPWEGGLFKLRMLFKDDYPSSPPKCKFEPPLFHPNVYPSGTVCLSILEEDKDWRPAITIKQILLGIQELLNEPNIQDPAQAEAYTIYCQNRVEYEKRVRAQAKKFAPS

T47D = assay: Antiproliferative activity against human T47D cells measured after 48 hrs by CCK8 assay; assay type: functional, cell-based
MGC-803 = assay: Antiproliferative activity against human MGC803 cells measured after 48 hrs by CCK8 assay; assay type: functional, cell-based; conditions: MGC-803, 48 h

**Q.** CCOc1nc2cccc(C(=O)OC(C)OC(=O)OC3CCCCC3)c2n1Cc1ccc(-c2ccccc2-c2nn[nH]n2)cc1 (stereo not drawn) [CANDESARTAN CILEXETIL] was tested. Which IC50 (BEAS-2B) did it give?
**A.** 89.9 µM

**Q.** What about the Activity (A549 [1]) of the same compound?
**A.** 6.79%

**Q.** And the Activity (A549 [2])?
**A.** 4.1%

**Q.** What about the inhibition [3] of the same compound?
**A.** Active

**Q.** What about the Activity (A549 [4]) of the same compound?
**A.** 6.48%

**Q.** What about the Activity (A549 [5]) of the same compound?
**A.** 36.64%

**Q.** What about the Activity (A549 [6]) of the same compound?
**A.** 11.53%

**Q.** And the inhibition [7]?
**A.** inactive

**Q.** And the Activity (A549 [8])?
**A.** 40.44%

**Q.** And the IC50 (MKN-45)?
**A.** 68.9 µM

**Q.** And the Activity (A549 [9])?
**A.** 30.45%

**Q.** What about the inhibition (A549 [10]) of the same compound?
**A.** Active

**Q.** What about the inhibition [11] of the same compound?
**A.** Active

**Q.** And the inhibition [12]?
**A.** Active

**Q.** What about the IC50 (NCI-H1299) of the same compound?
**A.** 45.1 µM

**Q.** And the inhibition [13]?
**A.** Dose-dependent effect

**Q.** And the Activity (A549 [14])?
**A.** 19.74%

**Q.** What about the inhibition [15] of the same compound?
**A.** Active

**Q.** What about the inhibition [16] of the same compound?
**A.** Dose-dependent effect

**Q.** What about the IC50 (16HBE14o-) of the same compound?
**A.** > 100 µM

**Q.** And the Activity (A549 [17])?
**A.** 13.36%

**Q.** What about the inhibition [18] of the same compound?
**A.** 100%

**Q.** What about the inhibition [19] of the same compound?
**A.** Dose-dependent effect

**Q.** What about the Activity (A549 [20]) of the same compound?
**A.** 18.37%

**Q.** And the IC50 (EKVX)?
**A.** > 100 µM

**Q.** And the inhibition [21]?
**A.** inactive

**Q.** What about the IC50 (T47D) of the same compound?
**A.** 64.3 µM

**Q.** And the IC50 (MGC-803)?
**A.** 57.1 µM
